Results as given in ChEMBL document CHEMBL3600283, “Enthalpic Forces Correlate with the Selectivity of Transthyretin-Stabilizing Ligands in Human Plasma” (J Med Chem, 2015).

Key:
[1] = molecular target: T1, Transthyretin (Homo sapiens, UniProt P02766); assay: Binding affinity to TTR (unknown origin) by isothermal titration calorimetric analysis
[2] = molecular target: T1, Transthyretin; assay: Binding affinity to TTR in human plasma assessed as protein stabilization preincubated for 1 hr followed by urea-mediated denaturation by Western blot analysis
[3] = Half life in plasma (unknown origin); format: ADME, cell-free

| Kd [1] [µM] | IC50 ([2]; read-out: IC50) [µM] | half-life [3] [h] | Compound | IC50 [2] [µM] |
| --- | --- | --- | --- | --- |
| 1.2 | 170 |  | O=C(O)COC(=O)Cc1ccccc1Nc1c(Cl)cccc1Cl [ACECLOFENAC] |  |
| 1 | 140 |  | O=C(O)Cc1ccccc1Nc1c(Cl)cccc1Cl [DICLOFENAC] |  |
| 0.1 | 180 | 1.5 | Cc1ccc(C)c(OCCCC(C)(C)C(=O)O)c1 [GEMFIBROZIL] |  |
| 0.48 | 50 |  | Cc1ccc(Cl)c(Nc2ccccc2C(=O)O)c1Cl [MECLOFENAMIC ACID] |  |
| 0.15 | 40 |  | Cc1c(Cl)cccc1Nc1ccccc1C(=O)O [TOLFENAMIC ACID] |  |

| Compound | Kd [1] [µM] | IC50 ([2]; read-out: IC50) [µM] | half-life [3] [h] | IC50 [2] [µM] |
| --- | --- | --- | --- | --- |
| O=c1cc(-c2ccc(O)cc2)oc2cc(O)cc(O)c12 [APIGENIN] | 0.25 |  |  | 18 |
| O=c1cc(-c2ccc(O)c(O)c2)oc2cc(O)cc(O)c12 [LUTEOLIN] | 0.07 | 7 |  |  |
